Measured values: the NIST ThermoML archive (doi:10.1021/je050414d)

Test: xn = mol fraction of the nth substance listed
Conditions: 101 kPa, Liquid; for viscosity: Capillary tube (Ostwald / Ubbelohde) method

CCOC(=O)OCC [diethyl carbonate] + Cc1ccccc1
Conditions	mass density [kg/m3]	viscosity [mPa·s]
298.15 K, x1 = 0.1014	874.5	0.573
298.15 K, x1 = 0.1984	885.94	0.59
298.15 K, x1 = 0.3006	897.67	0.608
298.15 K, x1 = 0.4024	908.97	0.627
298.15 K, x1 = 0.5212	921.72	0.649
298.15 K, x1 = 0.6022	930.18	0.664
298.15 K, x1 = 0.7016	940.28	0.684
298.15 K, x1 = 0.7995	949.95	0.702
298.15 K, x1 = 0.8975	959.36	0.722
298.15 K, x1 = 1	968.97	0.746
303.15 K, x1 = 0.1014	870.46	0.542
303.15 K, x1 = 0.1984	881.62	0.557
303.15 K, x1 = 0.3006	893.06	0.573
303.15 K, x1 = 0.4024	904.06	0.59
303.15 K, x1 = 0.5212	916.47	0.609
303.15 K, x1 = 0.6022	924.71	0.622
303.15 K, x1 = 0.7016	934.52	0.639
303.15 K, x1 = 0.7995	943.93	0.657
303.15 K, x1 = 0.8975	953.08	0.674
303.15 K, x1 = 1	962.39	0.695
313.15 K, x1 = 0.1014	860.95	0.484
313.15 K, x1 = 0.1984	872.04	0.497
313.15 K, x1 = 0.3006	883.39	0.51
313.15 K, x1 = 0.4024	894.33	0.523
313.15 K, x1 = 0.5212	906.66	0.539
313.15 K, x1 = 0.6022	914.85	0.55
313.15 K, x1 = 0.7016	924.6	0.564
313.15 K, x1 = 0.7995	933.95	0.579
313.15 K, x1 = 0.8975	943.04	0.593
313.15 K, x1 = 1	952.32	0.61
323.15 K, x1 = 0.1014	850.49	0.434
323.15 K, x1 = 0.1984	861.33	0.445
323.15 K, x1 = 0.3006	872.43	0.457
323.15 K, x1 = 0.4024	883.11	0.468
323.15 K, x1 = 0.5212	895.17	0.481
323.15 K, x1 = 0.6022	903.16	0.491
323.15 K, x1 = 0.7016	912.68	0.503
323.15 K, x1 = 0.7995	921.81	0.515
323.15 K, x1 = 0.8975	930.72	0.527
323.15 K, x1 = 1	939.78	0.541
333.15 K, x1 = 0.1014	841.39	0.394
333.15 K, x1 = 0.1984	852.01	0.403
333.15 K, x1 = 0.3006	862.85	0.413
333.15 K, x1 = 0.4024	873.3	0.422
333.15 K, x1 = 0.5212	885.09	0.434
333.15 K, x1 = 0.6022	892.88	0.442
333.15 K, x1 = 0.7016	902.2	0.452
333.15 K, x1 = 0.7995	911.11	0.461
333.15 K, x1 = 0.8975	919.81	0.471
333.15 K, x1 = 1	928.69	0.483
343.15 K, x1 = 0.1014	831.46	0.358
343.15 K, x1 = 0.1984	841.79	0.365
343.15 K, x1 = 0.3006	852.32	0.373
343.15 K, x1 = 0.4024	862.48	0.382
343.15 K, x1 = 0.5212	873.94	0.391
343.15 K, x1 = 0.6022	881.51	0.398
343.15 K, x1 = 0.7016	890.57	0.407
343.15 K, x1 = 0.7995	899.24	0.415
343.15 K, x1 = 0.8975	907.69	0.425
343.15 K, x1 = 1	916.33	0.435
353.15 K, x1 = 0.1014	821.53	0.318
353.15 K, x1 = 0.1984	831.67	0.326
353.15 K, x1 = 0.3006	842.02	0.334
353.15 K, x1 = 0.4024	852.02	0.342
353.15 K, x1 = 0.5212	863.29	0.352
353.15 K, x1 = 0.6022	870.74	0.358
353.15 K, x1 = 0.7016	879.66	0.367
353.15 K, x1 = 0.7995	888.2	0.375
353.15 K, x1 = 0.8975	896.52	0.384
353.15 K, x1 = 1	905.02	0.393
363.15 K, x1 = 0.1014	808.79	0.293
363.15 K, x1 = 0.1984	819.07	0.3
363.15 K, x1 = 0.3006	829.57	0.306
363.15 K, x1 = 0.4024	839.71	0.313
363.15 K, x1 = 0.5212	851.16	0.322
363.15 K, x1 = 0.6022	858.77	0.328
363.15 K, x1 = 0.7016	867.85	0.336
363.15 K, x1 = 0.7995	876.55	0.343
363.15 K, x1 = 0.8975	885.04	0.351
363.15 K, x1 = 1	893.71	0.358
